# Results: paper PMC8213057, “Targeting ALK2: An Open Science Approach to Developing Therapeutics for the Treatment of Diffuse Intrinsic Pontine Glioma” (Journal of Medicinal Chemistry, 2020)
# Columns and labels:
# NLK = molecular target: T1, NLK (Homo sapiens, UniProt Q9UBE8); test: 375-member kinase panel; assay type: biochemical; settings: Run 1, Run 2; for % enzyme activity: 1 μM; for remaining activity at 1 µM: read-out: % enzyme activity, 1 μM
# T1 construct: purchased Reaction Biology Corporation
# T1 sequence (Q9UBE8 1-527): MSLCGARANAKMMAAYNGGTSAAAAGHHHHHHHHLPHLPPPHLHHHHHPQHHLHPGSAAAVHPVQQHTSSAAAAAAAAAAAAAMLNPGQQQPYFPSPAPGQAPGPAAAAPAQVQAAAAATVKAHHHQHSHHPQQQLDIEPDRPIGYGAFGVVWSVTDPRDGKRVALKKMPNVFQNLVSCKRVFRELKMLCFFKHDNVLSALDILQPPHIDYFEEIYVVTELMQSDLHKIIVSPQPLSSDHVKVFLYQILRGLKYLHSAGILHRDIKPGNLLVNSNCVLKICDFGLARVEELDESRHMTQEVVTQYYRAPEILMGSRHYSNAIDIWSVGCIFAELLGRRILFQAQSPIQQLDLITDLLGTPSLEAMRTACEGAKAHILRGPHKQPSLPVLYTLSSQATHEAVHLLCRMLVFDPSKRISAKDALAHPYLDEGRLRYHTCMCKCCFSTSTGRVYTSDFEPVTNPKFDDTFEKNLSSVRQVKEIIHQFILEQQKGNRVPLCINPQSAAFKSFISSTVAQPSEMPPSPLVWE
# DCAMKL2 = molecular target: T2, DCAMKL2 (Homo sapiens, UniProt Q8N568); test: biochemical; settings: read-out: % enzyme activity, 1 μM; Run 1, Run 2
# T2 sequence (Q8N568 1-766): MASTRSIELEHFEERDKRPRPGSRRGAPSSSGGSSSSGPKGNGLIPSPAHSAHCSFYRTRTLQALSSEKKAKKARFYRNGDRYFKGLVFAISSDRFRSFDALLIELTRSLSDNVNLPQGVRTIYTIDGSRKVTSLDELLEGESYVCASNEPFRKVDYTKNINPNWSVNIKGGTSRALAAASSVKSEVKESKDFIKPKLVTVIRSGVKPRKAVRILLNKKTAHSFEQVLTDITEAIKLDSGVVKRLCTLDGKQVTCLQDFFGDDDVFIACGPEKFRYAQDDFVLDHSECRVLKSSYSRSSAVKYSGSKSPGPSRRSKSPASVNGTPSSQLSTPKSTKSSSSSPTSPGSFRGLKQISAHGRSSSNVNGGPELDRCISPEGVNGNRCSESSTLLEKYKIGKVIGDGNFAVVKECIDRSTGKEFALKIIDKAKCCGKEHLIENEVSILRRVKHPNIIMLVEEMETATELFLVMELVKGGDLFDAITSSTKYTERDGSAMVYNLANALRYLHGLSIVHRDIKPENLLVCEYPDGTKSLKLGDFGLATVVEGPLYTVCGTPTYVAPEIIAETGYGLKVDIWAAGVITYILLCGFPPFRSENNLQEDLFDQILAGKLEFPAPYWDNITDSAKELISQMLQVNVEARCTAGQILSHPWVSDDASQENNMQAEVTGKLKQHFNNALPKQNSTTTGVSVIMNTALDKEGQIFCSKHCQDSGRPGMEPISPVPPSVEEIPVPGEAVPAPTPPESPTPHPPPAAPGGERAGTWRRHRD
# GSK3a = GSK3a (Homo sapiens, UniProt P49840); test: biochemical; settings: read-out: % enzyme activity, 1 μM; Run 1, Run 2
# Sequence of GSK3a (P49840 whole entry): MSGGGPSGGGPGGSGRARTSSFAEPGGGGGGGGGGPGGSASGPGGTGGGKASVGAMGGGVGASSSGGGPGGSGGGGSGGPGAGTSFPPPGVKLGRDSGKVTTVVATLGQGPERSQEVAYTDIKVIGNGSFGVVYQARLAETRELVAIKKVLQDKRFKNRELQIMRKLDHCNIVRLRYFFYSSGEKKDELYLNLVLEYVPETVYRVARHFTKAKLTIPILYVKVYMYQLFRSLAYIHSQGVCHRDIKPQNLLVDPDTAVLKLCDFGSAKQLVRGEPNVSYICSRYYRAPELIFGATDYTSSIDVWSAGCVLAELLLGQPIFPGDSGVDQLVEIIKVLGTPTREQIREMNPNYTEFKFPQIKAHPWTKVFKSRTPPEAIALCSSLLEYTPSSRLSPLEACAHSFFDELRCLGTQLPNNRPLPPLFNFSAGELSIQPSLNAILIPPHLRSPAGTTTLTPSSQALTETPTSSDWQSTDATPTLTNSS
# CDK4/cyclin D1 = CDK4/cyclin D1 (Homo sapiens, UniProt P11802); settings: 1 μM; Run 1, Run 2
# Sequence of CDK4/cyclin D1 (P11802 whole entry): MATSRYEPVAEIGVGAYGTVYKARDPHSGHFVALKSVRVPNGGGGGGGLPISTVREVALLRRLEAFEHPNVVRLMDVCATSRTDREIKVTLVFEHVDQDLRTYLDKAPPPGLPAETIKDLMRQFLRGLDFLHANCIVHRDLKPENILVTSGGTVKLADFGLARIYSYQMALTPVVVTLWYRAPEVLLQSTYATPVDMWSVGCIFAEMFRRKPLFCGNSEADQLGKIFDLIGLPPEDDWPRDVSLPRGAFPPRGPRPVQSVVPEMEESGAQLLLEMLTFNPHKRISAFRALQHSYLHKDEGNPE
# Sequence of CDK4/cyclin D1 (P24385 whole entry partner): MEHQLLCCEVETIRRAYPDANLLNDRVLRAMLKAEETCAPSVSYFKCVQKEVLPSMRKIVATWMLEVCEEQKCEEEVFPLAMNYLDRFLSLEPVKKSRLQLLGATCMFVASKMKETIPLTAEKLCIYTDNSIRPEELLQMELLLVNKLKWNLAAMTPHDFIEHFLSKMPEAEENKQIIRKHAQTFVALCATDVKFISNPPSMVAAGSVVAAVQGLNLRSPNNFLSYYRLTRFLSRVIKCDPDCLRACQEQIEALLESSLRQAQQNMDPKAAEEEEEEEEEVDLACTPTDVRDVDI
# TNK1 = molecular target: T3, TNK1 (Homo sapiens, UniProt Q13470); settings: 1 μM; Run 1, Run 2
# T3 sequence (Q13470 1-666): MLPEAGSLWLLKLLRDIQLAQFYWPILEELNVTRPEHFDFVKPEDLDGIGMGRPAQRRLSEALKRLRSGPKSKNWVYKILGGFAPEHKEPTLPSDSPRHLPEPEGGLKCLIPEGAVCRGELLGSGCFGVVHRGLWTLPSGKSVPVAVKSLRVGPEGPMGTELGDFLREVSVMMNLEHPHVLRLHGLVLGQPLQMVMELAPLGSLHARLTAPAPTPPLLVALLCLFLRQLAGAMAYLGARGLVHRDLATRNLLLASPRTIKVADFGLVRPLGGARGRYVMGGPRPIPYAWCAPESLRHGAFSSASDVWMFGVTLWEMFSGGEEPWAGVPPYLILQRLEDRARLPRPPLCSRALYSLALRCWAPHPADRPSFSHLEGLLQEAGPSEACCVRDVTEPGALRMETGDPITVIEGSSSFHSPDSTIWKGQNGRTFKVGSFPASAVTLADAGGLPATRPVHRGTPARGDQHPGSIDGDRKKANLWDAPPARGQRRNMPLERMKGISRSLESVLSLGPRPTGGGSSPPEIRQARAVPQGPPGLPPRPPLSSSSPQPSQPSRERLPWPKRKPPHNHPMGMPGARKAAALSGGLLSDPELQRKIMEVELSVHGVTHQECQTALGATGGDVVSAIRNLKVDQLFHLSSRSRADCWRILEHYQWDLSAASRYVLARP
# MST2/STK3 = molecular target: T4, MST2/STK3 (Homo sapiens, UniProt Q13188); test: biochemical; settings: read-out: % enzyme activity, 1 μM; Run 1, Run 2
# T4 sequence (Q13188 1-491): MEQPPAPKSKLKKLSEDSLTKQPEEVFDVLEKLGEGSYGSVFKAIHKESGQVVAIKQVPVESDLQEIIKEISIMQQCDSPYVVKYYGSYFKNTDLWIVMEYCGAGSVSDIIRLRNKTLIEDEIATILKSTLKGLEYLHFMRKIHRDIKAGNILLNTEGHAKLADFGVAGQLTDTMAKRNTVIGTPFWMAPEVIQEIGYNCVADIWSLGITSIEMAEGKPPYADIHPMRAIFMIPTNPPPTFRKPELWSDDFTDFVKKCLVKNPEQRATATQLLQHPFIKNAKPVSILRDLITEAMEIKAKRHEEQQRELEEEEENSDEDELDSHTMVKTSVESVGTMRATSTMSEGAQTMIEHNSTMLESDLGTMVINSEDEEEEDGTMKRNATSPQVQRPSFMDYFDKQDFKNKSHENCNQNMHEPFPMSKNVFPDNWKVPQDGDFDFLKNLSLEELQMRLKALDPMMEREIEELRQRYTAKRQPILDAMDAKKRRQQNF
# ROS/ROS1 = ROS/ROS1 (Homo sapiens, UniProt P08922); settings: 1 μM; Run 1, Run 2
# Sequence of ROS/ROS1 (P08922 28-2347): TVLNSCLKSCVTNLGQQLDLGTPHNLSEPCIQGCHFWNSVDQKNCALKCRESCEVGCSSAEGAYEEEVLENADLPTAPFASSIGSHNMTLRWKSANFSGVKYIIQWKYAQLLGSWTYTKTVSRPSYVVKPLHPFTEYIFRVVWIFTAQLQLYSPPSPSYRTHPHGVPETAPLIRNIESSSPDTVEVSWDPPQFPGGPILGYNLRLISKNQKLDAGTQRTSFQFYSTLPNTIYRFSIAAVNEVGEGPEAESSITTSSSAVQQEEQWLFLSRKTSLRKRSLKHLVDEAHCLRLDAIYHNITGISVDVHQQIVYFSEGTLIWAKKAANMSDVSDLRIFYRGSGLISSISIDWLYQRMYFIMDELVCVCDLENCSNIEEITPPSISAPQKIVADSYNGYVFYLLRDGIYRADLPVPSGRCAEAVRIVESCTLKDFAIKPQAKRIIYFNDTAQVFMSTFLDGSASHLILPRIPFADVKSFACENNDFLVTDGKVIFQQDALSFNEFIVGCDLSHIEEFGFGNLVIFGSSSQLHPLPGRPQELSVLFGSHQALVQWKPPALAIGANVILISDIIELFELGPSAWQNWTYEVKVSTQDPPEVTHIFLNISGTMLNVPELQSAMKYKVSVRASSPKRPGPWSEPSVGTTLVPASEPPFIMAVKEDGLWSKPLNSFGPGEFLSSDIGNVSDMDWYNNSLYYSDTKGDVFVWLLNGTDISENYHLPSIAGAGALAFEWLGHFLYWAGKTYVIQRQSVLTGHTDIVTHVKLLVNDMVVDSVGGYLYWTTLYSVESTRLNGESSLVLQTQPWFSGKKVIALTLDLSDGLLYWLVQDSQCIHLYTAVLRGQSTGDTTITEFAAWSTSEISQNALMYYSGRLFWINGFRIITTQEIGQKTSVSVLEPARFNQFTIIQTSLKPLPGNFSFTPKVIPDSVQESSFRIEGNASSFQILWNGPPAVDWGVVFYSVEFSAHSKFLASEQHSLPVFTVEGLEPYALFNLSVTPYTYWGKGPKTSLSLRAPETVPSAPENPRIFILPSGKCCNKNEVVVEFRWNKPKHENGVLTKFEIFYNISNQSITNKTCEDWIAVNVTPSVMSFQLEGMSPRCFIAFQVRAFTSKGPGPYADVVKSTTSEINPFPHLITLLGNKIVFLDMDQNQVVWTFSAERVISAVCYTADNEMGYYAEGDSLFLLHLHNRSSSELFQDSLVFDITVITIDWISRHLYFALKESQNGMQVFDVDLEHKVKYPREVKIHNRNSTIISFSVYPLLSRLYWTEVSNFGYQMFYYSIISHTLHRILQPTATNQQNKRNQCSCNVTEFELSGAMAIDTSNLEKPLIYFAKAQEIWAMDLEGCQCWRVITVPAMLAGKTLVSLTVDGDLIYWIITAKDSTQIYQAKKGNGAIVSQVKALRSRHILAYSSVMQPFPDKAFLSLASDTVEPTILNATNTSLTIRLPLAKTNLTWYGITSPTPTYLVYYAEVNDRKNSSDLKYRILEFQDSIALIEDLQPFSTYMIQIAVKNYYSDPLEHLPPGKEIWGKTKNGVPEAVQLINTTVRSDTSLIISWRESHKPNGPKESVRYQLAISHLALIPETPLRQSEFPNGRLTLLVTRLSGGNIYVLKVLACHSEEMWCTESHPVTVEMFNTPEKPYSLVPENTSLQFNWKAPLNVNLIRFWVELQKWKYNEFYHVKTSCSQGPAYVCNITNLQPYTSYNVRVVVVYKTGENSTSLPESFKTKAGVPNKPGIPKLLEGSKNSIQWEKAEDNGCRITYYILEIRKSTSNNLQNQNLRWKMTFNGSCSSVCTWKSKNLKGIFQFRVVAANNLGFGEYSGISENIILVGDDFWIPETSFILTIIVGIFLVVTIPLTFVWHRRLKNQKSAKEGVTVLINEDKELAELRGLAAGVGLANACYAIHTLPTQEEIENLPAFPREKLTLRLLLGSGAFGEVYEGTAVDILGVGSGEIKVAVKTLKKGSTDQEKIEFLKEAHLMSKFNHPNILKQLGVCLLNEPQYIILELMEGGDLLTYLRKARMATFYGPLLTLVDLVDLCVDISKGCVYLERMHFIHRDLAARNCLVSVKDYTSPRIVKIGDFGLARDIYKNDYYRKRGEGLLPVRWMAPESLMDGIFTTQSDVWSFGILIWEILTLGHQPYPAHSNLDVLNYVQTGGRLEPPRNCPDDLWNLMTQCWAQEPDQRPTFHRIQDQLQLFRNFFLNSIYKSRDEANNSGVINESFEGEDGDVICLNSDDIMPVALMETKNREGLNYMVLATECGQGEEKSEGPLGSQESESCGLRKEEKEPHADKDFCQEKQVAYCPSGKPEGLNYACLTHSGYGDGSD
# CAMK2d = CAMK2d (Homo sapiens, UniProt Q13557); test: biochemical; settings: read-out: % enzyme activity, 1 μM; Run 1, Run 2
# Sequence of CAMK2d (Q13557 whole entry): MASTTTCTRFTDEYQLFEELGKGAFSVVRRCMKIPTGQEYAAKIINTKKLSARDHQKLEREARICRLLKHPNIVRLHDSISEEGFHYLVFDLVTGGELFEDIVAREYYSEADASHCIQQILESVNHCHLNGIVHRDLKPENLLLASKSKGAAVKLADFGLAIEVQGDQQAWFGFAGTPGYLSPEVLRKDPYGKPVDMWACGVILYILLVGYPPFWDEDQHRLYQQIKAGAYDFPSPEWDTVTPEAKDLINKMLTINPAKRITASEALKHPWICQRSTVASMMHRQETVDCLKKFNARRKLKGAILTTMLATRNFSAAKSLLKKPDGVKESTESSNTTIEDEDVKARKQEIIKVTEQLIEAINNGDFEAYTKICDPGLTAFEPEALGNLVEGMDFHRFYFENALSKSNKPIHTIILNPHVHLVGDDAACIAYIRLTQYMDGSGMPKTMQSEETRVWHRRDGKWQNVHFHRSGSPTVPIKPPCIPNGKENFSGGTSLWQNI
Compound,% enzyme activity (NLK),remaining activity at 1 µM (NLK),remaining activity at 1 µM (DCAMKL2),remaining activity at 1 µM (GSK3a),% enzyme activity (CDK4/cyclin D1),% enzyme activity (TNK1),remaining activity at 1 µM (MST2/STK3),% enzyme activity (ROS/ROS1),remaining activity at 1 µM (CAMK2d)
"COc1cc(-c2cncc(-c3ccc(N4CCN(C)CC4)cc3)c2C)cc(F)c1C(N)=O [Compound 26a, 2-Fluoro-6-methoxy-4-(4-methyl-5-(4-(4-methylpiperazin-1-yl)phenyl)pyridin-3-yl)benzamide]",20.81%,22%,64.4%,102%,98.46%,99.53%,95.6%,86.47%,95.1%
"COc1cc(-c2cncc(-c3ccc(N4C[C@@H](C)N(C)[C@@H](C)C4)cc3)c2C)cc(F)c1C(N)=O [Compound 26c, 2-Fluoro-6-methoxy-4-(4-methyl-5-(4-((3R,5S)-3,4,5-trimethylpiperazin-1-yl)phenyl)pyridin-3-yl)benzamide]",47.74%,50.4%,84.5%,102%,100.29%,98.22%,102%,95.54%,96.2%
